Experimental data: patent US11464770B2, “Anticancer pharmaceutical composition” (NATIONAL CANCER CENTER, priority 2016, dated 2022)
Read-outs that look alike come from different tables or passages of the source.

Tests used:
[1] = tested on: cervical carcinoma cell lines; experiment: Cell based assay, cell viability (CellTiter-Glo), cervical carcinoma cell lines; settings: Homo sapiens; HeLa cells
Description: (§1) Commercially available bladder cancer, prostate cancer, lung cancer, breast cancer, blood cancer, pancreatic cancer, colorectal cancer, brain cancer, neuroblastoma, melanoma, liver cancer, cervical carcinoma, ovarian cancer, renal cancer, and papilloma cell lines were each treated with trypsin-EDTA and cultured, followed by being seeded in each well of a 96 well plate. […] The treated cells were additionally cultured for 72 hours, and cell viability was measured by using an ATP detection method (CellTiter-Glo® Luminescent Cell Viability Assay, Promega).

[2] = tested on: RT4: human urinary bladder transitional cell papilloma; experiment: Cell based assay, cytotoxicity in RT4 papilloma cells (selectivity); settings: Homo sapiens, RT-4; RT4 cells
Description: as §1

[3] = tested on: brain cancer cell lines; experiment: Cell based assay, cell viability (CellTiter-Glo), brain cancer cell lines; settings: Homo sapiens
Description: as §1

[4] = tested on: blood cancer cell lines (e.g. HL-60, Jurkat, Raji, Ramos, Daudi, MOLT-4); experiment: Cell based assay, cell viability (CellTiter-Glo), blood cancer cell lines; settings: Homo sapiens
Description: Commercially available bladder cancer, prostate cancer, lung cancer, breast cancer, blood cancer, pancreatic cancer, colorectal cancer, brain cancer, neuroblastoma, melanoma, liver cancer, cervical carcinoma, ovarian cancer, renal cancer, and papilloma cell lines were each treated with trypsin-EDTA and cultured, followed by being seeded in each well of a 96 well plate. After 24 hours of treatment at constant temperature, the respective cells were treated with the candidate compound so that a final concentration became 0 to 2 μM. The treated cells were additionally cultured for 72 hours, and cell viability was measured by using an ATP detection method (CellTiter-Glo® Luminescent Cell Viability Assay, Promega).

[5] = U138-MG, U-138 MG cell line, read-out: IC50, Brain cancer cell line U-138 MG
[6] = T98G cell line, read-out: IC50, Brain cancer cell line T98G
[7] = U-251 MG cell line, read-out: IC50, Brain cancer cell line U-251 MG
[8] = MV4-11, blood cancer cell line MV-4-11, 72 hours, read-out: IC50, MV-4-11
[9] = blood cancer cell line Daudi, 72 hours, read-out: IC50, Daudi
[10] = blood cancer cell line HL-60, 72 hours, read-out: IC50, HL-60
[11] = blood cancer cell line Jurkat, 72 hours, read-out: IC50, Jurkat
[12] = blood cancer cell line MOLT-4, 72 hours, read-out: IC50, MOLT-4
[13] = blood cancer cell line Raji, 72 hours, read-out: IC50, Raji
[14] = blood cancer cell line Ramos (RA 1), 72 hours, read-out: IC50, Ramos (RA 1)
[15] = blood cancer cell line U-937, 72 hours, read-out: IC50, U-937

SMILES	IC50 [1] [µM]	IC50 [2] [µM]	IC50 [3, 5] [µM]	IC50 [3, 6] [µM]	IC50 [3, 7] [µM]	IC50 [4, 8] [nM]	IC50 [4, 9] [nM]	IC50 [4, 10] [nM]	IC50 [4, 11] [nM]	IC50 [4, 12] [nM]	IC50 [4, 13] [nM]	IC50 [4, 14] [nM]	IC50 [4, 15] [nM]
CC(=O)c1c([S+](C)[O-])n(Cc2ccc(F)c(Cl)c2)c2c(Br)ccc(Cl)c2c1=O (centres unmarked) [Compound 22, 3-acetyl-8-bromo-5-chloro-1-(3-chloro-4-fluorobenzyl)-2-(methylsulfinyl)quinolin-4(1H)-one]	> 10	> 10	> 10	> 10	> 2	> 2000	> 2000	> 2000	> 2000	> 2000	> 2000	> 2000	> 2000
CC(=O)c1c([S+]([O-])c2ccccc2)[nH]c2c(Br)ccc(Cl)c2c1=O (centres unmarked) [Compound 13, 3-acetyl-8-bromo-5-chloro-2-(phenylsulfinyl)quinolin-4(1H)-one]	> 10	> 10	> 10	> 10	> 2	> 2000	> 2000	> 2000	> 2000	> 2000	> 2000	> 2000	> 2000
CC(=O)c1c([S+]([O-])Cc2nonc2C)[nH]c2c(Br)ccc(Cl)c2c1=O (centres unmarked) [Compound 106, 3-acetyl-8-bromo-5-chloro-2-(((4-methyl-1,2,5-oxadiazol-3-yl)methyl)sulfinyl)quinolin-4(1H)-one]	> 2	> 10	> 10	> 10	> 2	> 2000	> 2000	> 2000	> 2000	> 2000	> 2000	> 2000	> 2000
CC(=O)c1c([S+]([O-])Cc2ccc(S(F)(F)(F)(F)F)cc2F)[nH]c2c(Br)ccc(Cl)c2c1=O (centres unmarked) [Compound 69, 3-acetyl-8-bromo-5-chloro-2-((2-fluoro-4-(pentafluoro-16-sulfanyl)benzyl)sulfinyl)quinolin-4(1H)-one]	> 10	> 10	1.54	> 10	1.16	1470	1430	1880	1130	1300	1110	1870	> 2000
CC(=O)c1c(SCc2cccc(I)c2)[nH]c2c(Br)ccc(Cl)c2c1=O [Compound 47, 3-acetyl-8-bromo-5-chloro-2-((3-iodobenzyl)thio)quinolin-4(1H)-one]	> 10	> 10	> 10	> 10	> 2	> 2000	> 2000	> 2000	> 2000	> 2000	> 2000	> 2000	> 2000
CC(=O)c1c(SCc2cccc(F)c2)[nH]c2c(Br)ccc(Cl)c2c1=O [Compound 49, 3-acetyl-8-bromo-5-chloro-2-((3-fluorobenzyl)thio)quinolin-4(1H)-one]	> 10	> 10	> 10	> 10	> 2	> 2000	> 2000	> 2000	> 2000	> 2000	> 2000	> 2000	> 2000
CC(=O)c1c(Sc2ccccc2)[nH]c2c(Br)ccc(Cl)c2c1=O [Compound 12, 3-acetyl-8-bromo-5-chloro-2-(phenylthio)quinolin-4(1H)-one]	> 10	> 10	> 10	> 10	> 2	> 2000	> 2000	> 2000	> 2000	> 2000	> 2000	> 2000	> 2000
Cc1cc(C[S+]([O-])c2[nH]c3c(Br)ccc(Cl)c3c(=O)c2C(=O)C2CC2)no1 (centres unmarked) [Compound 96, 8-bromo-5-chloro-3-(cyclopropanecarbonyl)-2-(((5-methylisoxazol-3-yl)methyl)sulfinyl)quinolin-4(1H)-one]	> 2	> 10	> 2	> 10	1.31	1160	1370	1650	590	> 2000	1660	1060	> 2000
CC(=O)c1c([S+]([O-])Cc2cccc(I)c2)[nH]c2c(Br)ccc(Cl)c2c1=O (centres unmarked) [Compound 48, 3-acetyl-8-bromo-5-chloro-2-((3-iodobenzyl)sulfinyl)quinolin-4(1H)-one]	> 10	> 10	> 2	> 10	> 2	> 2000	> 2000	> 2000	> 2000	> 2000	> 2000	> 2000	> 2000
CC(=O)c1c(S/C=C\C(=O)O)[nH]c2c(Br)ccc(Cl)c2c1=O [Compound 67, (Z)-3-((3-acetyl-8-bromo-5-chloro-4-oxo-1,4-dihydroquinolin-2-yl)thio)acrylic acid]	> 10	> 10	> 10	> 10	> 2	> 2000	> 2000	> 2000	> 2000	> 2000	> 2000	> 2000	> 2000
CC(=O)c1c([S+]([O-])Cc2ccc(N)nc2)[nH]c2c(Br)ccc(Cl)c2c1=O (centres unmarked) [Compound 100, 3-acetyl-2-(((6-aminopyridin-3-yl)methyl)sulfinyl)-8-bromo-5-chloroquinolin-4(1H)-one]	> 2	> 10	> 10	> 10	> 2	> 2000	> 2000	> 2000	> 2000	> 2000	> 2000	> 2000	> 2000
COc1ccccc1Sc1[nH]c2c(Br)ccc(Cl)c2c(=O)c1C(C)=O [Compound 14, 3-acetyl-8-bromo-5-chloro-2-((2-methoxyphenyl)thio)quinolin-4(1H)-one]	> 10	> 10	> 10	> 10	> 2	> 2000	> 2000	> 2000	> 2000	> 2000	> 2000	> 2000	> 2000
CSc1c(C(C)=O)c(=O)c2cc(F)ccc2n1C [Compound 7, 3-acetyl-6-fluoro-1-methyl-2-(methylthio)quinolin-4(1H)-one]	> 10	> 10	> 10	> 10	> 2	> 2000	> 2000	> 2000	> 2000	> 2000	> 2000	> 2000	> 2000
CC(=O)c1c(S(C)(=O)=O)n(S(=O)(=O)c2ccc(C(C)(C)C)cc2)c2c(Br)ccc(Cl)c2c1=O [Compound 41, 3-acetyl-8-bromo-1-((4-(tert-butyl)phenyl)sulfonyl)-5-chloro-2-(methylsulfonyl)quinolin-4(1H)-one]	> 10	> 10	> 10	> 10	> 2	> 2000	> 2000	> 2000	> 2000	> 2000	> 2000	> 2000	> 2000
